pIC50: −log10 of the molar value. Bounds are passed on as bounds.

The target of experiment [1] is human Cereblon WT GST-tagged protein (Homo sapiens (Human), UniProt Q96SW2). As to the kind of experiment: CRBN-binding affinity, HTRF (CEREBLON BINDING kit, CISBIO). The note with it: HTRF inhibitory activity. Summed up:
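HTRF competition format: test compound displaces Thalidomide-Red from GST-tagged human Cereblon WT, detected with a Eu-labelled anti-GST antibody. Percent CRBN binding inhibition was derived from the 620 nm signal, normalized to solvent-control and protein-free blank wells.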
In general terms: Time-resolved FRET reads energy transfer from a long-lived donor to a nearby acceptor.

The next experiment deals with IKZF1 (Homo sapiens (Human), UniProt Q13422+Q96SW2). Description: Western blot, substrate protein expression in hPBMC: IKZF1. The format is cell-based. The following applies: hPBMC, compound 500 nM, 24 hours, Western blot. Summed up:
(§1)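 hPBMC, 1×10^6 cells/mL, 24 h compound exposure; RIPA lysis, BCA protein assay, SDS-PAGE, NC membrane immunoblot. Densitometry vs internal control → % protein remaining; degradation % = 100% − remaining; DC50 = conc. at 50% of DMSO band signal.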

The target of the next experiment is IKZF3 (Homo sapiens (Human), UniProt Q96SW2+Q9UKT9). As to the kind of experiment: Western blot, substrate protein expression in hPBMC: IKZF3. The class given is cell-based. The note with it: hPBMC, compound 500 nM, 24 hours, Western blot. Summed up:
as §1
In general terms: A western blot detects proteins with antibodies after separation by electrophoresis.

A further experiment concerns the target GSPT1 (Homo sapiens (Human), UniProt P15170+Q96SW2). Description: Western blot, substrate protein expression in hPBMC: GSPT1. The format is cell-based. The note with it: hPBMC, compound 500 nM, 24 hours, Western blot. Summed up:
as §1

The subject of experiment [2] is CAL-62 (human thyroid carcinoma cells). As to the kind of experiment: Tumor cell proliferation inhibition, CCK-8. The class given is cell-based. The note with it: CAL-62 cells, CCK-8, read-out: inhibitory activity (IC50, nM) CAL-62. Summed up: (§2)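 Cells seeded, then after 24 h exposed to 10 concentrations (top 10 μM, 5-fold serial dilutions) at 37° C, 5% CO2. Viability read with CCK-8 reagent; IC50 derived from growth-inhibition curves.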

Experiment [3] deals with CCRF-CEM (human acute lymphoblastic leukemia T-cells). Description: Tumor cell proliferation inhibition, CCK-8. The format is cell-based. The note with it: CCRF-CEM cells, CCK-8, read-out: inhibitory activity (IC50, nM) CCRF-CEM. Summed up:
as §2

Experiment [4] deals with H146 cells (human small cell lung carcinoma cells). Description: Tumor cell proliferation inhibition, CCK-8. The note with it: NCI-H146, H146 cells, CCK-8, read-out: inhibitory activity (IC50, nM) H146. The format is cell-based. Summed up:
as §2

The test system of experiment [5] is Jurkat cells (human T-cell leukemia cells). As to the kind of experiment: Tumor cell proliferation inhibition, CCK-8. The format is cell-based. The following applies: Jurkat cells, CCK-8, read-out: inhibitory activity (IC50, nM) Jurkat. Summed up: as §2
Experiment [6] relates to Kasumi-1 (human acute myeloid leukemia cells). Description: Tumor cell proliferation inhibition, CCK-8. The following applies: Kasumi-1 cells, CCK-8, read-out: inhibitory activity (IC50, nM) Kasumi-1. The format is cell-based. Summed up:
as §2

Experiment [7] deals with MDA-MB-231 cells (human breast adenocarcinoma cells). As to the kind of experiment: Tumor cell proliferation inhibition, CCK-8. The format is cell-based. The following applies: MDA-MB-231 cells, CCK-8, read-out: inhibitory activity (IC50, nM) MDA-MB-231. Summed up:
as §2

Experiment [8] deals with MM.1R cells (dexamethasone-resistant human multiple myeloma cells). Description: Tumor cell proliferation inhibition, CCK-8. The format is cell-based. The following applies: MM.1R cells, CCK-8, read-out: inhibitory activity (IC50, nM) MM.1R. Summed up:
as §2

Experiment [9] has as its system MM.1S cells (human multiple myeloma cells). As to the kind of experiment: Tumor cell proliferation inhibition, CCK-8. The class given is cell-based. The following applies: MM1.S, MM.1S cells, CCK-8, read-out: inhibitory activity (IC50, nM) MM.1S. Summed up:
as §2

For experiment [10], the system named is TMD8 cells (human diffuse large B-cell lymphoma cells). As to the kind of experiment: Tumor cell proliferation inhibition, CCK-8. The class given is cell-based. The following applies: TMD8 cells, CCK-8, read-out: inhibitory activity (IC50, nM) TMD8. Summed up:
as §2

GSPT1, sequence (P15170 whole entry): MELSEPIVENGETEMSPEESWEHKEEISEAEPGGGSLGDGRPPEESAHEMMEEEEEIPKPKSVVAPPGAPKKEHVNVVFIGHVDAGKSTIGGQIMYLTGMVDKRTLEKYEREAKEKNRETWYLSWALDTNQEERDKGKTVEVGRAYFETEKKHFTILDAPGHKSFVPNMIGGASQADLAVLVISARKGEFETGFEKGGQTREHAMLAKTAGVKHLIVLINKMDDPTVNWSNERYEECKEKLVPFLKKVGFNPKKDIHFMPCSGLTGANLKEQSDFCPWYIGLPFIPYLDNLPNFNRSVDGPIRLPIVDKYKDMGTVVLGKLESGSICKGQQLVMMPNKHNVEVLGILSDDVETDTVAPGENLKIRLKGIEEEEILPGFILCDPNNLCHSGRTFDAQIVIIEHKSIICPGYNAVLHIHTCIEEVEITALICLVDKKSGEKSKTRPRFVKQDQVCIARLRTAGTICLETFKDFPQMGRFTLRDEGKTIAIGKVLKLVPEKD
GSPT1, sequence (Q96SW2 whole entry): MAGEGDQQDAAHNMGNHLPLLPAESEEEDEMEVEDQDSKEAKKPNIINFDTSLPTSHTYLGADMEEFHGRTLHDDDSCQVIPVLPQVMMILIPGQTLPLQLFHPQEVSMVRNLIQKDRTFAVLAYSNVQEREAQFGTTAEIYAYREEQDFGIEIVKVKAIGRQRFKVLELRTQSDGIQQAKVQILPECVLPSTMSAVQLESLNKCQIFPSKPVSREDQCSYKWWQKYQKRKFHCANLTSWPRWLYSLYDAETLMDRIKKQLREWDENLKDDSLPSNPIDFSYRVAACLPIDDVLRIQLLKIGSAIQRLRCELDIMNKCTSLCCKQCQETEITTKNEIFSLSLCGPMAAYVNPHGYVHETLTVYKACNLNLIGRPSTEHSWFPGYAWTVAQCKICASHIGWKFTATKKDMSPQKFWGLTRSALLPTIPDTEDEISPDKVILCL
GSPT1, sequence (Q16531 whole entry partner): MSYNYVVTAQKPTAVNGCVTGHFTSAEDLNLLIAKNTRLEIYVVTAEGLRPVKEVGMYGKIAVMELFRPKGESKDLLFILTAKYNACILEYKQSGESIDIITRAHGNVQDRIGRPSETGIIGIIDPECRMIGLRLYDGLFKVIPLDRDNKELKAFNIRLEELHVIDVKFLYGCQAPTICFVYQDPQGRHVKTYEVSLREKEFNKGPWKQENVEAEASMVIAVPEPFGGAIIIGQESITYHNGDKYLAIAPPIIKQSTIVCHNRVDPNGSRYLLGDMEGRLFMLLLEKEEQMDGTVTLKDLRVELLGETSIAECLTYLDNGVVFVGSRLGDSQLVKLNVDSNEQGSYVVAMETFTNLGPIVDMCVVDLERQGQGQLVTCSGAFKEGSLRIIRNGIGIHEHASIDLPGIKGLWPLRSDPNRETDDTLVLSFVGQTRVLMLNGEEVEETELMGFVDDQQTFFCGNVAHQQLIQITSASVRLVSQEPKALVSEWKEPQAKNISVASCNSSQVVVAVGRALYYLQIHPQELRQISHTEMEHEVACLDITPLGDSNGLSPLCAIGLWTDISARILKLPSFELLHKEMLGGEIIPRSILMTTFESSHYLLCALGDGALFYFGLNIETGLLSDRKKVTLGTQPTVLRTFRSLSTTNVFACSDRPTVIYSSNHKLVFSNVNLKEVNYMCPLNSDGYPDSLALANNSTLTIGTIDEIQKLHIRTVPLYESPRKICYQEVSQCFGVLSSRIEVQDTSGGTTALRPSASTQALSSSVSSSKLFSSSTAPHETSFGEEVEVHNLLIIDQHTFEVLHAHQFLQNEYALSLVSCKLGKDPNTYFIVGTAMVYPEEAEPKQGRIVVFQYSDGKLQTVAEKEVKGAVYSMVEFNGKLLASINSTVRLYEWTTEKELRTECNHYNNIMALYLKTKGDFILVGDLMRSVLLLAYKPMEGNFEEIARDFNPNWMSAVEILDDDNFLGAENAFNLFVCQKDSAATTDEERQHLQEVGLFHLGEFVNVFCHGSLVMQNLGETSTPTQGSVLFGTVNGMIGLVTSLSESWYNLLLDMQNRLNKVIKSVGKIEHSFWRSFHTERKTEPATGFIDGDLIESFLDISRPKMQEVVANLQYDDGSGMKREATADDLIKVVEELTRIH
IKZF3, sequence (Q9UKT9 whole entry): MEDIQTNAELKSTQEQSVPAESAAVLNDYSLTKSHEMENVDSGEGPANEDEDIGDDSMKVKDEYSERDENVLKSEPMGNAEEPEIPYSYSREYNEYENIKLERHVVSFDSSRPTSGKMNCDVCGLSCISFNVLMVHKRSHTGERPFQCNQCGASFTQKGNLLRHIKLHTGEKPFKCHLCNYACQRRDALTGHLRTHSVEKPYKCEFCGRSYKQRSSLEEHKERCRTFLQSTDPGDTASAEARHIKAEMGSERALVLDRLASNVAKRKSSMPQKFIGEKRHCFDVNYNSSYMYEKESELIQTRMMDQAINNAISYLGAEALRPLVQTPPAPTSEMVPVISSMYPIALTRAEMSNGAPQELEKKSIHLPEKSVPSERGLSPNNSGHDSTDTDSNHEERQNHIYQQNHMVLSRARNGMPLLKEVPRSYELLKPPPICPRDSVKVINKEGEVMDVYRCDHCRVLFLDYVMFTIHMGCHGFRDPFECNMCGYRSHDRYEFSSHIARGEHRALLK
IKZF3, sequence (Q96SW2 whole entry): as the sequence (Q96SW2 whole entry) above
IKZF3, sequence (Q16531 whole entry partner): as the sequence (Q16531 whole entry partner) above
human Cereblon WT GST-tagged protein, sequence (Q96SW2 whole entry): as the sequence (Q96SW2 whole entry) above
IKZF1, sequence (Q13422 whole entry): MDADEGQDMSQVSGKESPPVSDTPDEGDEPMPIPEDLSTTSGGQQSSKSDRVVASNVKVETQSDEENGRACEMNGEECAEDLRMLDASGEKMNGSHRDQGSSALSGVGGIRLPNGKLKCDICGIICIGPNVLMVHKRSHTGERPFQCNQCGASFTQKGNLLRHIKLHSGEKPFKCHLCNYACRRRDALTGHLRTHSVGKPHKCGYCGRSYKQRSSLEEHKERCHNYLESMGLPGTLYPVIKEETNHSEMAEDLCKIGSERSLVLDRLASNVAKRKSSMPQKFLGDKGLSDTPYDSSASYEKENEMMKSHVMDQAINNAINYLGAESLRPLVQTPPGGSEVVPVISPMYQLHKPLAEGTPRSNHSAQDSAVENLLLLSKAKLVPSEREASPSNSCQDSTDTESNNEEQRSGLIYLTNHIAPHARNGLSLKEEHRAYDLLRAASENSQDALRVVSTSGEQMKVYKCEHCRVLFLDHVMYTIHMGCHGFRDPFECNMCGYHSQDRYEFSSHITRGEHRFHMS
IKZF1, sequence (Q96SW2 whole entry): as the sequence (Q96SW2 whole entry) above
IKZF1, sequence (Q16531 whole entry partner): as the sequence (Q16531 whole entry partner) above

As for `O=C1CCC(N2Cc3c(ccc(CN4CCN(C(c5ccccc5)c5ccccc5)CC4)c3F)C2=O)C(=O)N1` (stereo not shown) [GT-03466, 3-(5-((4-benzhydrylpiperazin-1-yl)methyl)-4-fluoro-1-oxoisoindolin-2-yl)piperidine-2,6-dione], in [1], the pIC50 (usually −log10 of the IC50, conventionally taken in molar units) is above 6.30. Moreover, at IKZF1, the “substrate protein remaining % IKZF1” value is on record as “A (A represents 0% ≤ substrate protein remaining % ≤ 50%)”. Further, the “substrate protein remaining % IKZF3” value on IKZF3 is given as “A (A represents 0% ≤ substrate protein remaining % ≤ 50%)”. For the same compound, the “substrate protein remaining % GSPT1” value on GSPT1 is reported as “A (A represents 0% ≤ substrate protein remaining % ≤ 50%)”. The 50% inhibitory concentration (IC50) (usually the point on the concentration scale where inhibition reaches its midpoint) is 1 to 10 nM in [2]; below 1 nM in experiment [3]; 10 to 50 nM in [4]; 1 to 10 nM in experiment [5]; 1 to 10 nM in experiment [6]; 1 to 10 nM in experiment [7]. The figures for the IC50 in experiment [8], in [9] and in experiment [10] were 1 to 10 nM, 1 to 10 nM and 10 to 50 nM, respectively.
In [1], `O=C1CCC(N2Cc3c(ccc(CN4CCN(C(c5ccc(F)cc5)c5ccc(F)cc5)CC4)c3F)C2=O)C(=O)N1` (stereo not shown) [GT-03564, 3-(5-((4-(bis(4-fluorophenyl)methyl)piperazin-1-yl)methyl)-4-fluoro-1-oxoisoindolin-2-yl)piperidine-2,6-dione] had a pIC50 above 6.30. Also, at IKZF1, the “substrate protein remaining % IKZF1” value is on record as “A (A represents 0% ≤ substrate protein remaining % ≤ 50%)”. Moreover, the “substrate protein remaining % IKZF3” value on IKZF3 is given as “A (A represents 0% ≤ substrate protein remaining % ≤ 50%)”. Also, the “substrate protein remaining % GSPT1” value at GSPT1 was “A (A represents 0% ≤ substrate protein remaining % ≤ 50%)”. Further, the IC50 was 1 to 10 nM in [2]; 1 to 10 nM in experiment [3]; 10 to 50 nM in [4]; 10 to 50 nM in [5]; 1 to 10 nM in [6]; 10 to 50 nM in [7]. In addition, the IC50 in experiment [8] lay in the range of 10 to 50 nM; in experiment [9], 1 to 10 nM; in experiment [10], 10 to 50 nM.
In experiment [1], `O=C1CCC(N2Cc3cc(CN4CCN(C(c5ccc(F)cc5)c5ccc(F)cc5)CC4)c(F)cc3C2=O)C(=O)N1` (stereo not shown) [GT-03698, 3-(5-((4-(bis(4-fluorophenyl)methyl)piperazin-1-yl)methyl)-6-fluoro-1-oxoisoindolin-2-yl)piperidine-2,6-dione] had a pIC50 of 6.00 to 6.30. Moreover, the “substrate protein remaining % IKZF1” value on IKZF1 was “A (A represents 0% ≤ substrate protein remaining % ≤ 50%)”. Further, the “substrate protein remaining % IKZF3” value on IKZF3 is reported as “A (A represents 0% ≤ substrate protein remaining % ≤ 50%)”. The “substrate protein remaining % GSPT1” value on GSPT1 was “A (A represents 0% ≤ substrate protein remaining % ≤ 50%)”. Also, the IC50 in [2] is 1 to 10 nM; in [3], below 1 nM; in [4], 10 to 50 nM; in experiment [5], 1 to 10 nM; in experiment [6], 1 to 10 nM; in experiment [7] it was 10 to 50 nM. Besides, the IC50 in experiment [8] was 1 to 10 nM; in experiment [9], 1 to 10 nM; in experiment [10], 100 to 500 nM.
Take `O=C1CCC(N2Cc3cc(CN4CCN(C(c5ccccc5)c5ccccc5)CC4)c(F)cc3C2=O)C(=O)N1` (stereo not shown) [GT-03700, 3-(5-((4-benzhydrylpiperazin-1-yl)methyl)-6-fluoro-1-oxoisoindolin-2-yl)piperidine-2,6-dione]: the pIC50 in experiment [1] was 6.00 to 6.30. Also, the “substrate protein remaining % IKZF1” value on IKZF1 is given as “A (A represents 0% ≤ substrate protein remaining % ≤ 50%)”. In addition, the “substrate protein remaining % IKZF3” value on IKZF3 was “B (B represents substrate protein remaining % > 50%)”. The “substrate protein remaining % GSPT1” value on GSPT1 is “A (A represents 0% ≤ substrate protein remaining % ≤ 50%)”. The IC50 in experiment [2] lay within 1 to 10 nM; in [3] it was 1 to 10 nM; in experiment [4], 10 to 50 nM; in experiment [5] it was 1 to 10 nM; in [6], 1 to 10 nM; in experiment [7] it was 1 to 10 nM. In addition, the figures for the IC50 in experiment [8], in experiment [9] and in [10] were 1 to 10 nM, 1 to 10 nM and 10 to 50 nM, respectively.

These data come from patent US20250320193A1, “OXOISOINDOLINYL SUBSTITUTED PIPERIDINEDIONE DERIVATIVE AND USE THEREOF” (GLUETACS THERAPEUTICS (SHANGHAI) CO., LTD., priority 2022, published 2025).
